The text below walks through data of ChEMBL document CHEMBL1134687, “Synthesis and structure-activity relationships of naphthamides as dopamine D3 receptor ligands” (J Med Chem, 2001).

As usually defined, the Ki is the dissociation constant of the complex between target and ligand, obtained from inhibition or displacement.

Structures are written as SMILES.

One assay deals with D(2) dopamine receptor (Rattus norvegicus, UniProt P61169). The assay can be described thus: Binding affinity for dopamine receptor D2 long expressed in Sf9 cells using [125I]IABN radioligand.
The target of the next assay is D(3) dopamine receptor (Rattus norvegicus, UniProt P19020). The experiment in a line: biochemical.
Assay [1] addresses Sigma 2 receptor. Also on record: species or system Rattus norvegicus, Liver, Membrane.
The target of assay [2] is Sigma 2 receptor. The assay can be described thus: Binding affinity for sigma-2 receptor measured on rat liver membranes using [3H]DTG as radioligand in the presence of (+)-pentazocine. Also on record: species or system Membrane.

D(2) dopamine receptor, sequence (P61169 whole entry): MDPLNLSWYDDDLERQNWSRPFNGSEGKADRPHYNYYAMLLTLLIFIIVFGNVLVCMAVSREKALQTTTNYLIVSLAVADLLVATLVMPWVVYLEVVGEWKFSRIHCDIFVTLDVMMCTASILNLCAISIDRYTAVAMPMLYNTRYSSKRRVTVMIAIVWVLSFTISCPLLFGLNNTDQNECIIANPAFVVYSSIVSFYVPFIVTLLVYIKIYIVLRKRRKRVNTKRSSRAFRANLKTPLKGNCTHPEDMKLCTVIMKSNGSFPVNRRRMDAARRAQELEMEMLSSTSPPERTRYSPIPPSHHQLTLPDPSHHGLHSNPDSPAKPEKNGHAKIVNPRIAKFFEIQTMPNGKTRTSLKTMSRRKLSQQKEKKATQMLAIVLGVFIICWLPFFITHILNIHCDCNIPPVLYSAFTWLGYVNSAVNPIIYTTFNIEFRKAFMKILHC
D(3) dopamine receptor, sequence (P19020 whole entry): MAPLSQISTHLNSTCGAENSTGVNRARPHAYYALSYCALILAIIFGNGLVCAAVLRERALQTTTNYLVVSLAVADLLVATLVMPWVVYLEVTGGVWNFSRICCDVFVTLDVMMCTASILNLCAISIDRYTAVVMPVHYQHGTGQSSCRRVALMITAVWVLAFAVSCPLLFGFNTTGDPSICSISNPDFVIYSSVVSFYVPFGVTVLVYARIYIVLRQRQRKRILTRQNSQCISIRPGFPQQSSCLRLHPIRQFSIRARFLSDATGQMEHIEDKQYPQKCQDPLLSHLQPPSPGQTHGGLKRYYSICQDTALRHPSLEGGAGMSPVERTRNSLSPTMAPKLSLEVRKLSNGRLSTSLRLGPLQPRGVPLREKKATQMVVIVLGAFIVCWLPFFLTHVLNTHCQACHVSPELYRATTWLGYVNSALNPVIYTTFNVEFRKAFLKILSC
Description for D(3) dopamine receptor: Binding affinity for dopamine receptor D3 expressed in Sf9 cells using [125I]IABN the radioligand.

For `COc1c(C(=O)NC[C@@H]2CCCN2C2CCC2)cc(Br)c2ccccc12`, at D(2) dopamine receptor, the Ki amounted to 11.8 nM.

`COc1c(C(=O)NC2CC3CCCC(C2)N3C2CCCCCC2)cc(Br)c2ccccc12` (stereo not drawn): the Ki on D(2) dopamine receptor turned out to be 152 nM; on D(3) dopamine receptor it was 41 nM; on Sigma 2 receptor [1], 7.9 nM.

For `COc1c(C(=O)N[C@@H]2CCN(Cc3ccccc3)C2)cc(Br)c2ccccc12`, the Ki on D(2) dopamine receptor was found to be 12 nM; on D(3) dopamine receptor, 1.6 nM; on Sigma 2 receptor [1], 20.8 nM.

As to `COc1c(C(=O)N[C@@H]2CCN(C3C4CCCC3CCC4)C2)cc(Br)c2ccccc12` (stereo partly drawn), the Ki was determined as 75 nM at D(2) dopamine receptor, 13.2 nM at D(3) dopamine receptor and 279 nM on Sigma 2 receptor [1].

At D(3) dopamine receptor, `COc1c(C(=O)NC[C@@H]2CCCN2C2CCCCCC2)cc(Br)c2ccccc12` returned a Ki of 50 nM.

On to `COc1c(C(=O)NC[C@H]2CCCN2C2[C@H]3C[C@@H]4C[C@@H](C[C@H]2C4)C3)cc(Br)c2ccccc12` (stereo partly drawn), for which the Ki amounted to 2.6 nM on D(3) dopamine receptor and 317 nM at Sigma 2 receptor [1].

For `COc1c(C(=O)NC[C@H]2CCCN2C2CCCC2)cc(Br)c2ccccc12`, the values for the Ki on D(2) dopamine receptor and on Sigma 2 receptor [1] were 157 nM and 35 nM, respectively.

Turning to `COc1c(C(=O)N[C@H]2CCN(C3C4CCCC3CCC4)C2)cc(Br)c2ccccc12` (stereo partly drawn), the results for the Ki at D(2) dopamine receptor, on D(3) dopamine receptor and on Sigma 2 receptor [1] were 132 nM, 12 nM and 137 nM, respectively.

With `COc1c(C(=O)NC2CC3CCCC(C2)N3C2CCCCC2)cc(Br)c2ccccc12` (stereo not drawn), the Ki on D(2) dopamine receptor turned out to be 150 nM; at D(3) dopamine receptor it was 48 nM; at Sigma 2 receptor [1], 4.8 nM.

`COc1c(C(=O)NC2CCN(C3[C@H]4C[C@@H]5C[C@@H](C[C@H]3C5)C4)CC2)cc(Br)c2ccccc12` (stereo partly drawn): the Ki on D(2) dopamine receptor was 96 nM; at D(3) dopamine receptor, 92 nM; on Sigma 2 receptor [1] it was 55 nM.

Take `COc1c(C(=O)N[C@H]2CCN(Cc3ccccc3)C2)cc(Br)c2ccccc12`: the Ki on D(2) dopamine receptor came out at 9.7 nM; on D(3) dopamine receptor it was 1 nM; on Sigma 2 receptor [1], 42 nM.

`COc1c(C(=O)NC[C@H]2CCCN2C2CCC2)cc(Br)c2ccccc12` yielded a Ki at D(2) dopamine receptor of 277 nM.

With `COc1c(C(=O)N[C@@H]2CCN(C3[C@H]4C[C@@H]5C[C@@H](C[C@H]3C5)C4)C2)cc(Br)c2ccccc12` (stereo partly drawn), the results for the Ki on D(3) dopamine receptor and on Sigma 2 receptor [1] were 13 nM and 21.4 nM, respectively.

Take `COc1c(C(=O)NC2CCN(C3CCCCC3)CC2)cc(Br)c2ccccc12`: the figures for the Ki at D(2) dopamine receptor, at D(3) dopamine receptor and on Sigma 2 receptor [1] were 94 nM, 430 nM and 2.1 nM, respectively.

Regarding `COc1c(C(=O)NC2CCN(Cc3ccccc3)CC2)cc(Br)c2ccccc12`, the values for the Ki on Sigma 2 receptor [2] and at D(3) dopamine receptor were 35 nM and 1.1 nM, respectively.

As for `COc1c(C(=O)N[C@H]2CCN(C3[C@H]4C[C@@H]5C[C@@H](C[C@H]3C5)C4)C2)cc(Br)c2ccccc12` (stereo partly drawn), the values for the Ki on D(3) dopamine receptor and on Sigma 2 receptor [1] were 0.4 nM and 70 nM, respectively.

As to `COc1c(C(=O)NC[C@H]2CCCN2C2CCCCCC2)cc(Br)c2ccccc12`, the affinity at D(3) dopamine receptor, expressed as Ki, was 2.4 nM.

Consider `COc1c(C(=O)NC2CC3CCCC(C2)N3Cc2ccccc2)cc(Br)c2ccccc12` (stereo not drawn), for which the Ki at D(2) dopamine receptor turned out to be 0.2 nM; on D(3) dopamine receptor, 0.04 nM; at Sigma 2 receptor [1] it was 250 nM.

As to `COc1c(C(=O)NC[C@@H]2CCCN2C2CCCCC2)cc(Br)c2ccccc12`, the Ki at D(2) dopamine receptor stood at 442 nM; on D(3) dopamine receptor it was 334 nM; at Sigma 2 receptor [1], 147 nM.

With `COc1c(C(=O)NC[C@H]2CCCN2C2CCCCC2)cc(Br)c2ccccc12`, the figures for the Ki at D(2) dopamine receptor, at D(3) dopamine receptor and at Sigma 2 receptor [1] were 58 nM, 3.2 nM and 25 nM, respectively.

In the case of `COc1c(C(=O)NC2CCN(C3CCCCCC3)CC2)cc(Br)c2ccccc12`, the Ki at D(2) dopamine receptor is 23 nM; at D(3) dopamine receptor it was 58 nM; on Sigma 2 receptor [1] it was 2.6 nM.

`COc1c(C(=O)NC[C@H]2CCCN2Cc2ccccc2)cc(Br)c2ccccc12`: the figures for the Ki at D(2) dopamine receptor, at D(3) dopamine receptor and on Sigma 2 receptor [1] were 11.4 nM, 1.4 nM and 207 nM, respectively.

On to `COc1c(C(=O)NC[C@@H]2CCCN2C2[C@H]3C[C@@H]4C[C@@H](C[C@H]2C4)C3)cc(Br)c2ccccc12` (stereo partly drawn), for which the Ki at D(3) dopamine receptor was 68 nM; on Sigma 2 receptor [1], 141 nM.

As to `COc1c(C(=O)N[C@@H]2CCN(C3CCCCCC3)C2)cc(Br)c2ccccc12`, the inhibition constant (Ki) came out at 19 nM at D(2) dopamine receptor, 2.9 nM at D(3) dopamine receptor and 10 nM on Sigma 2 receptor [1].

As for `COc1c(C(=O)NC2CCN(C3C4CCCC3CCC4)CC2)cc(Br)c2ccccc12` (stereo not drawn), the Ki at D(2) dopamine receptor turned out to be 771 nM; on D(3) dopamine receptor it was 1430 nM; at Sigma 2 receptor [1], 2.4 nM.

In the case of `COc1c(C(=O)NC[C@@H]2CCCN2Cc2ccccc2)cc(Br)c2ccccc12`, the figures for the Ki at D(2) dopamine receptor, at D(3) dopamine receptor and on Sigma 2 receptor [1] were 151 nM, 14.6 nM and 222 nM, respectively.

As for `COc1c(C(=O)N[C@H]2CCN(C3CCCC3)C2)cc(Br)c2ccccc12`, the Ki at D(2) dopamine receptor was found to be 19 nM; at D(3) dopamine receptor, 2.5 nM; on Sigma 2 receptor [1] it was 27 nM.

As for `COc1c(C(=O)N[C@@H]2CCN(C3CCCCC3)C2)cc(Br)c2ccccc12`, the Ki at D(2) dopamine receptor worked out at 74 nM; on D(3) dopamine receptor, 5.7 nM; at Sigma 2 receptor [1] it was 9.8 nM.

For `COc1c(C(=O)N[C@@H]2CCN(C3CCCC3)C2)cc(Br)c2ccccc12`, the values for the Ki on D(2) dopamine receptor, at D(3) dopamine receptor and on Sigma 2 receptor [1] were 283 nM, 75 nM and 15.3 nM, respectively.

`COc1c(C(=O)NC2CCN(C3CCCC3)CC2)cc(Br)c2ccccc12`: the values for the Ki on D(2) dopamine receptor, at D(3) dopamine receptor and on Sigma 2 receptor [1] were 210 nM, 899 nM and 6.8 nM, respectively.

Take `COc1c(C(=O)NC[C@@H]2CCCN2C2CCCC2)cc(Br)c2ccccc12`: the Ki on D(2) dopamine receptor is 59 nM; on Sigma 2 receptor [1] it was 51 nM.

For the compound `COc1c(C(=O)NC[C@@H]2CCCN2C2C3CCCC2CCC3)cc(Br)c2ccccc12` (stereo partly drawn), the Ki at D(2) dopamine receptor stood at 26 nM; at D(3) dopamine receptor, 7.5 nM; on Sigma 2 receptor [1] it was 267 nM.

Consider `COc1c(C(=O)N[C@H]2CCN(C3CCCCCC3)C2)cc(Br)c2ccccc12`, for which the Ki on D(2) dopamine receptor stood at 1.8 nM; at D(3) dopamine receptor, 0.2 nM.

`COc1c(C(=O)N[C@H]2CCN(C3CCCCC3)C2)cc(Br)c2ccccc12`: the values for the Ki at D(3) dopamine receptor and on Sigma 2 receptor [1] were 0.8 nM and 25 nM, respectively.

For `COc1cc(I)cc(C(=O)NC2CC3CCCC(C2)N3Cc2ccccc2)c1OC` (stereo not drawn), the Ki at D(2) dopamine receptor was 0.05 nM; on D(3) dopamine receptor it was 0.04 nM; on Sigma 2 receptor [1] it was 419 nM.
